Where “and” joins values, the source holds several entries; their conditions need not be identical. Identical values can stand only once. Counter-ions that a name gives are not always drawn.
Experiments:
biofilm of MRSA = test: Combination treatment: dispersal of a biofilm; assay type: cell-based, Staphylococcus aureus; conditions: […] mixed with chlorhexidine gluconate at […]; biofilm of 10^11 cells; within one hour
human blood = test: Hemolysis test with diluted human blood (ISO 10993-4); assay type: cell-based
Description: Procedure: The PBS used in testing was calcium and magnesium free. The method has been validated using human blood from one donor. This is in compliance with ISO 10993-4 which states due to differences in blood activity, human blood should be used where possible. Furthermore, pooling unmatched human blood from multiple donors may cause red blood cell agglutination which in turn could cause hemolysis; this supports the use of a single donor.
The blood was drawn using vacutainers containing 0.1 M sodium citrate at a ratio of 9:1 (3.2% anticoagulant to blood). The blood in this test was used within four hours of blood draw. The collected blood was refrigerated until testing was performed.
A hemoglobin standard was diluted with Drabkin's reagent to give solutions at concentrations of 0.80, 0.60, 0.40, 0.30, 0.20, 0.10, 0.02, and 0.01 mg/ml. These solutions were allowed to stand at room temperature for a minimum of five minutes. The absorbance was read on a spectrophotometer at 540 nanometers (nm). A standard curve was determined with the absorbance values and the standard concentrations of hemoglobin.
Human blood was centrifuged at 700-800×g for 15 minutes. A 1 mL aliquot of the plasma was added into 1 mL of Drabkin's reagent, and placed at room temperature for a minimum of 15 minutes. The absorbance was read on a spectrophotometer at 540 nm. The hemoglobin concentration was determined from the standard curve and then multiplied by a factor of 2 to obtain the total plasma free hemoglobin. The plasma free hemoglobin was less than 2 mg/mL (actual value 0.221 mg/mL). A 20 μL aliquot of blood was added to 5 mL of Drabkin's reagent in duplicate and allowed to stand at room temperature for a minimum of 15 minutes. The absorbance was read on a spectrophotometer at 540 nm then multiplied by 251 to account for the dilution.
Based on the plasma hemoglobin and the blood absorbance against Drabkin's reagent, the blood was diluted out to 10±1 mg/mL with PBS. To verify the blood dilution, a 300 μL aliquot of this blood was added to 4.5 mL of Drabkin's reagent in triplicate and allowed to stand at room temperature for a minimum of 15 minutes. The absorbance was read on a spectrophotometer at 540 nm then multiplied by 16 to account for the dilution.
Glass test tubes were labeled appropriately. Both samples were prepared the same way. The samples were allowed to thaw prior to testing. To each test tube, 7 mL of the test article and 1 mL of the diluted blood were added. The controls consisted of the appropriate amount of control material, 7 mL of PBS and 1 mL of blood. Three tubes were prepared for each test article and control. The tubes were incubated at 37±2° C. for 3 hours±5 minutes. Tubes were gently inverted twice at 30 minute intervals throughout the incubation period. A non-hemolytic negative control, a hemolytic positive control and a PBS blank were included.
After incubation, test articles were centrifuged at 700-800×g for 15 minutes and 1 mL of the supernatant fluid was combined with 1 mL of Drabkin's reagent and allowed to stand at room temperature for a minimum of 15 minutes. Following the centrifugation phase, the supernatant of both test articles visually appeared clear and were particulate free. The PBS blank and the negative control supernatant visually appeared clear and were particulate free. The supernatant of the positive control visually appeared red and were particulate free. The test articles and controls were read at 540 nm in a spectrophotometer.
The hemolytic index (percent hemolysis) was interpreted using the following equation:
[formula] Where: Hemoglobin Released (mg/mL)=(Optical Density×X Coefficient+Constant)×16 Hemoglobin Present (mg/ml)=Diluted Blood 10±1 mg/mL
The corrected hemolytic index was calculated by subtracting the hemolytic index of the PBS blank solution from the hemolytic index of the test article and controls. […]

MRSA biofilms = test: EBEC, biofilms on PEEK membranes, eradication of all detectable bacteria (Example 2); assay type: cell-based, Staphylococcus aureus; conditions: ~2×10^11 cells per PEEK membrane, eradicate all detectable bacteria
Protocol: The fourth test that was performed was the effective biofilm eradication concentration (EBEC). To determine the EBEC, biofilms of MRSA and P. aeruginosa ATCC 27853 were grown on the surface of PEEK membranes using a previously established protocol. Briefly, 500 mL of brain heart infusion (BHI) broth were inoculated with 10^5 cells/mL of MRSA or P. aeruginosa. BHI broth was placed into a membrane biofilm reactor and placed on a hot plate set at 34° C. for 24 hours with a stir bar rotating at 130 rpm. Following the initial 24-hour growth period, a 10% BHI broth solution was flowed through the reactor at a rate of 6.944 mL/min for another 24 hours. After 48 hours of growth, each PEEK membrane had biofilm growth on it. In this experiment, there were ˜2×10^11 cells of MRSA per PEEK membrane and ˜2×10^10 cells of P. aeruginosa per PEEK membrane. The EBEC was defined as the concentration of the compound that was required to eradicate all detectable amounts (100%) of bacteria within the biofilms.

MRSA biofilm = test: MBEC assay (Calgary Biofilm Device), eradication of 100% of detectable biofilm (Example 2); assay type: cell-based, Staphylococcus aureus; conditions: eradicate 100% of detectable biofilm
Protocol: In addition to determining the MIC, the minimum biofilm eradication concentration (MBEC) of PBC-51 was also determined. The MBEC was determined using the MBEC assay, formerly known as the Calgary Biofilm Device, developed by Innovotech. In this instance, the MBEC was defined as the amount of antimicrobial required to eradicate 100% of detectable biofilm after being grown in the MBEC device. To grow the biofilms within this device, 150 μL of solution containing a concentration of 10^5 cells/mL were inoculated into each well of a 96-well plate. A lid containing 96 pegs was placed onto the plate and incubated for 24 hours at 37° C. while being shaken at 110 rpm. Biofilms developed on the surface of the polystyrene pegs within the 96-well plate. After 24 hours, each peg contained between 10^5 and 10^6 cells in well-established biofilms. The lid with pegs was transferred to a 96-well plate that contained 200 μL of varying concentrations of the compound and was incubated at 37° C. for an additional 24 hours. The plate was then sonicated, and the biofilms quantified using a 10-fold dilution series to determine the MBEC.

NCCCNCCCNCc1ccccc1 [CZ-7, benzylnorspermidine]
dispersal of a biofilm of MRSA (biofilm of MRSA): significant dispersal

CC(C)CNCCCNCCCNCc1cc(CNCCCNCCCNCC(C)C)cc(-c2ccccc2)c1 [CZ-86, N^1,N^1′-([1,1′-biphenyl]-3,5-diylbis(methylene))bis(N^3-(3-(isobutylamino)propyl)propane-1,3-diamine), hydrochloride salt]
Average Hemolytic Index (% Hemolysis) (human blood): 0.76 % Hemolysis | Hemolytic Grade (human blood): non-hemolytic | difference between the hemolytic indexes of test article and negative control (human blood): 0.00% | Average Optical Density (human blood; 540 nm): 0.003 | Optical Density (human blood; 540 nm, three tubes, 37 ± 2° C., 3 hours): 0.003 | Corrected Hemolytic Index (% Hemolysis) (human blood; hemolytic index of the PBS blank subtracted): 0.00 % Hemolysis | Hemolytic Index (human blood; three tubes): 0.764

CN[C@H](CC(C)C)C(=O)N[C@H]1C(=O)N[C@@H](CC(N)=O)C(=O)N[C@H]2C(=O)N[C@H]3C(=O)N[C@H](C(=O)N[C@H](C(=O)O)c4cc(O)cc(O)c4-c4cc3ccc4O)[C@H](O)c3ccc(c(Cl)c3)Oc3cc2cc(c3O[C@@H]2O[C@H](CO)[C@@H](O)[C@H](O)[C@H]2O[C@H]2C[C@](C)(N)[C@H](O)[C@H](C)O2)Oc2ccc(cc2Cl)[C@H]1O [vancomycin, reference compound]
EBEC (μg/mL/μM) (MRSA biofilms): > 20,000 μg/mL and > 13,460 μM | MBEC (μg/mL/μM) (MRSA biofilm): > 500 μg/mL and > 336.50 μM

Source: patent US10440955B2, “Methods comprising a biocidal polyamine” (Curza Global, LLC, priority 2013, dated 2019)
